Assays:
EEG oscillation power = experiment: Rat quantitative electroencephalography, freely moving; assay type: in vivo; details: first 4 h
Text: Model 4ET telemetry device components (Data Sciences International, St Paul, MN, USA) were bilaterally placed in subcutaneous pockets on the dorsal flank of adult male Sprague-Dawley rats (200–400 grams). Two pairs of leads were implanted superficially to burr holes drilled over the frontal cortex (stainless steel screws, Plastics One, Roanoke, VA at coordinates: A-P = +1.5 mm, M-L = 1.5 mm) and parietal cortex (coordinates: A-P = −3.7 mm, M-L = −2.2 mm), and the cerebellum bilaterally to be used as ground and reference for electroencephalographic (EEG) recordings. A stainless-steel wire (Plastics One, Roanoke, VA) was implanted into the neck muscle to monitor electromyogram (EMG). All recordings were performed inside the home cages of animals using RPC-2 telemetry receivers (Data Sciences International, St. Paul, MN) at a sampling rate of 500 Hz for data acquisition. Baseline data, while on vehicle, were obtained for 24 h prior to compound administration. PF-6142 (1.0 or 5.6 mg/kg, s.c.) was administered acutely following the baseline day.
Raw EEG traces were analyzed using custom scripts in MATLAB (The Mathworks, Natick, MA, version 7.8 (R2009a)) to evaluate spectral changes between treatment groups. Raw EEG data were read into the MATLAB software, segmented to match that of the polysomnography (PSG) data (see below) and fast Fourier transforms (FFTs) were performed. Only data collected on the parietal lead were the subject of statistical analyses. PSG analysis was applied to all EEG/EMG data and utilized an in-house algorithm developed in LabView (National Instruments, Austin TX) as previously described ([Harvey et al., 2013]).
Relative power data in each band aggregated over 2 h-long time bins, while on drug, were normalized to baseline levels in corresponding time bins relative to dosing. For statistical analysis the R software was used. The effects of two within factors, dose and time, on cumulative time spent in three stages, awake, REM, and NREM sleep were assessed using generalized linear mixed model. The model specification explicitly accounted for a crossover design with repeated measures by introducing auxiliary factors, day, treatment sequence, and day by time product. To account for correlations within subjects, we employed a first order autoregressive scheme, which assumes that correlations decay exponentially with the lag between the measurements. The model was fitted using the method of restricted maximum likelihood. Significant findings were followed by least significant difference tests for pairwise differences across doses and across doses at fixed times for treatment and treatment by time factors, respectively. Tukey-Kramer procedure was used to adjust for multiple hypothesis testing. For all statistical tests, p < 0.05 was considered significant. The same fixed factors and type of statistical model were used to explain cumulative power within EEG power bands; the power was log transformed before the analysis.

[1] = tested on: ketamine-induced working memory deficits; experiment: Spatial delayed response (SDR) task in the nonhuman primate; assay type: in vivo, rhesus monkeys
Text: This study was designed to test the hypothesis that PF-6142 would provide significant protection versus the ketamine-induced working memory deficits in nonhuman primates.
Rhesus monkeys were trained to stability on a variable SDR task in a sound-attenuated Wisconsin General Testing Apparatus ([Roberts et al., 2010]). Briefly, subjects observe while the investigator baiting one of two to seven wells with a highly preferred food reward and then covers all the wells with identical square plaques. An opaque screen is then lowered for one of five variable delays, which are pseudorandomized across trials within a session. Thus, delays are defined as 0–4 N, where “N” is a value that is animal dependent and ranges from 1 to 10 s depending upon the difficulty level of the task at which an animal reaches the criterion of stable performance. At the end of the delay period, the opaque screen is raised, and the animal must select the well that had been baited to obtain a reward. Each test session consists of 20 trials wherein both the baited well and delay length are pseudorandomized across trials. Before study initiation, all subjects were required to reach stability over a period of 10 consecutive test sessions, where stability was defined as an average of 65–75% correct. Stability was attained by varying the number of wells and the delay value for each animal. Subjects were originally trained on a two-well board with an N value of 1. […] Once stability was attained for a given number of wells and N value, that combination was kept constant throughout the course of the study ([Roberts et al., 2010]). The range of stable performance for the 10 subjects was two to five wells and an N value of 1–7 s (median, four-well testing board, N = 5 s). Data were transformed using logarithmic function [log(x+5)] to improve normality and analyzed using ANOVA.
Subjects received pretreatment with vehicle (sterile saline solution) or PF-6142 (0.0015, 0.015, 0.15 mg/kg, s.c.) 4 h before cognitive testing. They then received an intramuscular injection of either vehicle (sterile saline) or ketamine (0.7–1.7 mg/kg; Fort Dodge Co.) 0.25 h before cognitive testing. […] Thus, for the present study, one monkey received 0.7 mg/kg, seven monkeys received 1.0 mg/kg, and two monkeys received 1.7 mg/kg of ketamine. The vehicle/PF-6142 and vehicle/ketamine treatments were assigned using a randomized Latin square design with a total of eight conditions. Except for the vehicle/vehicle condition, there was a minimum 2-week washout period between all acute challenges during which time animals were required to “restabilize” to baseline performance levels, which was defined as at least three consecutive testing sessions wherein cognitive performance ranged between 65% and 75% correct.

[2] = tested on: MK-801-disrupted paired-pulse facilitation; experiment: Paired-pulse facilitation (PPF), CA1/subiculum to mPFC, urethane-anesthetized rat; assay type: in vivo
Procedure: Experiments were performed on n=10 adult male Sprague-Dawley rats (275–305 g) under urethane anesthesia (1.5 g/kg, i.p.). The femoral vein was cannulated for i.v. administration of drugs. A stimulation electrode was placed in the CA1/subiculum region (coordinates: A-P = +6.3 mm, M–L = +5.2 mm, D-V = +8.0 mm) using stereotactic methods and unilateral local field potential (LFP) was recorded by a metal monopolar macroelectrode placed into the medial PFC (mPFC; coordinates: A-P = +3.0 mm, M-L = +0.6 mm, D-V = +5.0 mm). […] Evoked responses to the first and the second stimuli were identified (P1 and P2, respectively) and the amount of PPF determined by the formula: (P2 amplitude/P1 amplitude). Waveform averages used to calculate PPF consisted of 60 consecutive stimuli. Five minutes were allowed between administration of each drug dose and the starting of the subsequent average of each 10-min period after each cumulative dose (0.1–1 mg/kg, IV). Disruption in power of LFP delta activity was measured as the percentage of power in low frequency (0–1.8 Hz) irregular activity in the total (0–4 Hz) delta power range. LFP power spectra were determined during periods concurrent with waveform averages and PPF calculation. Statistical significance was determined by means of two-tailed paired Student’s t-test.

[3] = significant only at 5.6 mg/kg s.c.

## Cc1cc(Oc2nccc3occc23)ccc1-c1c(C)ncc2nccn12 [PF-6142]
EEG oscillation power; 5.6 mg/kg s.c.
  delta oscillation power vs vehicle: significant delta power decrease
EEG oscillation power; 1.0 and 5.6 mg/kg s.c.
  power in other studied frequency bands (theta, alpha): not found to change significantly
EEG oscillation power; [3]
  beta oscillation power: significant increase
  gamma oscillation power: significant increase
  total power in the EEG signal: decreased significantly
[1]; PF-6142 0.0015-0.15 mg/kg s.c. 4 h before testing
  percent correct on the SDR task after pretreatment + ketamine (range over doses): 42.5–52.1%
[1]; PF-6142 0.0015-0.15 mg/kg s.c., all doses
  improvement of performance vs ketamine: more than 10 % correct
[1]; PF-6142 without ketamine
  working memory performance under normal conditions (pretreatment followed by placebo): no effect on its own
[2]; PF-6142 1.0 mg/kg IV cumulative (p=0.006)
  PPF values vs MK-801 challenge: significantly higher PPF values
[2]; PF-6142 1.0-3.0 mg/kg IV cumulative (3 mg/kg: p=0.89)
  effect on MK-801-induced changes in PPF after SCH-23390 pretreatment: no significant effect
[2]; cumulative IV, Spearman-Karber, 95% confidence levels 0.21-0.57 mg/kg, n=5
  ED50 for reversal of MK-801-induced effects on PPF: 0.35 mg/kg
